Results taken from patent US9006274B2, “Thiazole derivatives for treating dyskinesias caused by a chemical treatment” (Ipsen Pharma S.A.S., priority 2005, dated 2015).

Experiments:
[1] = tested on: dyskinesias induced by L-DOPA in rats; assay: Study of dyskinesias induced by L-DOPA (6-OHDA-lesioned dyskinetic rats), score of abnormal and involuntary movements; assay type: in vivo, rat; settings: for effect on rats suffering from induced dyskinesia: oral 10 and 30 mg/kg, dose-dependent, statistically significant effectiveness
Description: Principle of the In Vivo Test (Experimental Model with Dyskinetic Rats):
An animal model is produced where the dyskinesia is induced in animals treated with L-Dopa (3-(3,4-dihydroxyphenyl)-L-alanine). First of all in order to cause a reduction in the level of endogenous dopamine at the level of the striatum, lesions are produced in the rats using 6-hydroxydopamine (6-OHDA). Following this injection of 6-OHDA, these animals become sensitive to the side-effects of L-dopa. In fact in order to remedy this endogenous dopamine deficiency, the rats receive an L-Dopa based treatment. […] The dyskinesia thus induced is evaluated by a statistical behaviour test.
In fact the L-Dopa passes through the hematoencephalic barrier with difficulty and therefore it can be decarboxylated at the peripheral level.
The study was carried out on young male rats. The rats are anaesthetized (chloral 400 mg/kg). Then they receive 2 stereotaxic injections of 6 μg of 6-hydroxydopamine in the left striatum using a 10 μl Hamilton microsyringe. The rats receive in fine 12 μg of 6-OHDA dissolved in 4 μl of 0.02% L-ascorbate. Four weeks later the lesion to the locus niger is produced in the rats. In order to quantify this lesion, an indirect measurement is used: the rotations induced by apomorphine (substance test). The animals receive a sub-cutaneous injection of 0.5 mg/kg of apomorphine and the right and left rotations of the animals are measured over 30 minutes. A net rotational asymmetry score is then determined. This score is expressed as the number of complete turns in the test cage/minute in the contralateral direction of the lesion.
Six weeks after the 6-hydroxydopamine (6-OHDA) lesions, the selected rats receive a daily intraperitoneal injection of L-Dopa methylester at a dose of 20 mg/kg and benserazide at a dose of 15 mg/kg. The injections take place from week 6 to week 9. From week 10, the rats receive a more concentrated dose: each day they receive an intraperitoneal injection of L-Dopa methylester at a dose of 25 mg/kg and benserazide at a dose of 15 mg/kg. From week 11, the rats receive two daily injections of L-Dopa methylester at a dose of 15 mg/kg and benserazide at a dose of 15 mg/kg. During week 11, the rats are evaluated 3 times per week for their level of abnormal and involuntary movements in order to determine whether the administered doses are sufficient to cause a dyskinesia in these animals. The rats are observed individually from 30 minutes to 180 minutes after injection of the L-Dopa; they are observed every 30 minutes. The movements which are observed at that time are considered to be dyskinetic movements when they meet the following criteria: • the movements are induced by the L-Dopa; • the movements affect the side of the body in the contralateral direction of the lesion; • the movements are repetitive, involuntary and cannot be attributed to normal behaviour.
The abnormal and involuntary movements are classified in 4 sub-types: • locomotive dyskinesia: increase in locomotion of the side contralateral to the lesion; • axial dystonia: deviation of the posture of the neck and of the upper part of the body; • oromandibular dyskinesia: stereotypical movements of the jaws and protrusion of the tongue; • dyskinesia of the anterior limbs: repetitive and rhythmic jerking of the anterior limbs accompanied by a dystonic posture and/or strong grasping movements of the paws.
For each of these sub-types, the rats are marked on a scale of 0 to 4, knowing that: • 0=no movement, • 1=occasional movements, • 2=frequent movements, • 3=continuous movements but interrupted by a sensory distraction, • 4=continuous, acute movements, not interrupted by a sensory distraction.
The compounds according to the invention are tested in order to determine their ability to modulate the effects of the L-Dopa.

[2] = tested on: tardive orofacial dyskinesia caused by haloperidol in rats; assay: Study of tardive dyskinesia in rats treated with a neuroleptic (haloperidol) over a long period, count of tongue protrusions and mastication movements; assay type: in vivo, rat; settings: for effect on rats suffering from tardive dyskinesia and tardive orofacial dyskinesia caused by haloperidol: oral 10 and 30 mg/kg, dose-dependent effectiveness
Description: Principle of the In Vivo Test (Experimental Model with Rats): […] dyskinesia is a complication resulting from prolonged treatment with for example neuroleptics. It is characterized by repetitive, involuntary movements of the mouth, face and tongue. Long-term treatment with neuroleptics can lead to oromandibular dyskinesia, in particular it can lead to movements of mastication and protrusion of the tongue in rats. The principle of the test is to quantify the abnormal movements of the animals in a test cage during a determined time window (5 minutes). A neuroleptic, haloperidol (originating from Sigma®), is administered over a long period to rats using an Alzet® osmotic pump. This osmotic pump (reference 2ML4 Alzet®) is filled with a solution of haloperidol at 10 mg/ml. This pump is implanted subcutaneously in rats weighing between 150 g and 160 g. After anaesthesia of the rats with isoflurane, a small incision is made in the skin at the level of the scapulae to allow insertion of the pump. Then the incision is sutured. The pump makes it possible to continuously administer haloperidol to the rats at a dose of 2 mg/kg/day for 28 days. […] Before the treatment (t=0) with the compounds to be tested, the rats are placed individually in plastic test cages. […] Results: The rate of protrusion of the tongue and mastication movements is calculated statistically for each group of rats. […] The results presented were obtained with 8 tested animals.

[3] = 30 mg/kg orally, 120 minutes after the administration of L-Dopa, control (water) 12 (compound 1) and 12.9 (compound 2)
[4] = 30 mg/kg orally, after 180 minutes of treatment, reduced from 11.3 (compound 1) and from 13.8 (compound 2)

Row | SMILES | score of abnormal and involuntary movements (dyskinesia score, maximum 16 points) [1, 3] | score of abnormal and involuntary movements (dyskinesia score, maximum 16 points) [1, 4] | effect on rats suffering from induced dyskinesia [1] | score of chewing movements ([2]; 10 mg/kg orally, counted for 5 minutes, reduced from 30.3) | score of chewing movements ([2]; 30 mg/kg orally, counted for 5 minutes, reduced from 35.6) | effect on rats suffering from tardive dyskinesia and tardive orofacial dyskinesia caused by haloperidol [2] | score of abnormal and involuntary movements (dyskinesia score, maximum 16 points) ([1]; 10 mg/kg orally, after 180 minutes of treatment, reduced from 13) | rate of protrusion of the tongue ([2]; 10 mg/kg orally, after 3 hours, counted for 5 minutes, reduced from 11.4) | rate of protrusion of the tongue ([2]; 30 mg/kg orally, after 3 hours, counted for 5 minutes, reduced from 15) | number of mastication movements ([2]; 30 mg/kg orally, after 3 hours, counted for 5 minutes, reduced from 35.5)
1 | CC(C)(C)c1cc(-c2csc(CN)n2)cc(C(C)(C)C)c1O.Cl [Compound 1, 4-[2-(aminomethyl)-1,3-thiazol-4-yl]-2,6-di(tert-butyl)phenol hydrochloride or dihydrochloride] | 10 points | 9.6 points | anti-dyskinetic effect | 21 | 11.9 | anti-dyskinetic effect |  |  |  | 
2 | C[C@@H](N)c1nc(-c2cc(C(C)(C)C)c(O)c(C(C)(C)C)c2)cs1.Cl [Compound 2, 4-{2-[(1R)-1-aminoethyl]-1,3-thiazol-4-yl}-2,6-di-tert-butylphenol hydrochloride] | 9.7 points | 9 points | anti-dyskinetic effect |  |  | anti-dyskinetic effect | 10.6 points | 5 | 6 | 23.7
